Like-named read-outs stand apart in the source and are kept apart here.
Columns and labels:
HIV-1 RT mutant G190A = test: single round infection assay, G190A; format: cell-based; details: Human immunodeficiency virus 1
Procedure: (§1) The human osteosarcoma cell line, HOS, was obtained from Dr. Richard Schwartz (Michigan State University, East Lansing, MI) and grown in Dulbecco’s modified Eagle’s medium (Invitrogen, Carlsbad, CA) supplemented with 5 % (v/v) fetal bovine serum, 5 % newborn calf serum, and penicillin (50 units/ml) plus streptomycin (50 µg/ml; Quality Biological, Gaithersburg, MD). Virion production and single-round infectivity assays were used to determine antiviral activity (IC50 values) of the compounds as previously described.
(§2) pNLNgoMIVR-ΔEnv.LUC has been described previously. The RT open reading frame was removed from pNLNgoMIVR-ΔEnv.LUC (digestion with SpeI and SalI) and inserted between the SpeI and SalI sites of pBluescript II KS+. Using that construct as the wild-type template, we prepared the following HIV-1 RT mutants using the QuikChange II XL (Stratagene, La Jolla, CA) site-directed mutagenesis protocol kit: L100I, K103N, Y181C, Y188L, H221Y, K103N/Y181C, G190A, G190S, M230L, P236L, L100I/K103N, K103N/P225H, V106A/G190A/F227L, V106A, L234I, V106A/F227L, V106A/L234I, V106A/F227L/L234I, E40K, D67E, K101E, V111A, E138K, M184I, M184V, K101E/M184I, K101E/M184V, E138K/M184I, E138K/M184V, K101P, Y181I, and K101P/V179I. The following sense oligonucleotides were used with matching cognate antisense oligonucleotides (not shown) (Integrated DNA Technologies, Coralville, IA) in the mutagenesis: L100I, 5′-[…]-3′; L100I 2-103, 5′-[…]-3′; K103N, 5′-[…]-3′; Y181C, 5′-[…]-3′; Y188L, 5′-[…]-3′; H221Y, 5′-[…]-3′; G190A, 5′-[…]-3′; G190S, 5′-[…]-3′; P225H, 5′-[…]-3′; F227, 5′-[…]-3′; M230L, 5′-[…]-3′; P236L, 5′-[…]-3′; V106A, 5′-[…]-3′; L234I, 5′-[…]-3′; E40K, 5′-[…]-3′; D67E, 5′-[…]-3′; K101E, 5′-[…]-3′; V111A, 5′-[…]-3′; E138K, 5′-[…]-3′; M184I, 5′-[…]-3′; M184V, 5′-[…]-3′; K101P, 5′-[…]-3′; Y181I, 5′-[…]-3′; K101P/V179I, 5′-[…]-3′. The double mutants K103N/Y181C, K103N/P225H, and L100I/K103N were made using the previously generated K103N mutant and the appropriate oligonucleotides to add the second mutation, Y181C, P225, and L100I respectively. The double mutants V106A/F227L and V106A/L234I were prepared using the previously generated V106A mutant and the appropriate oligonucleotides to add the second mutation, F227L and L234I, respectively. The double mutants K101E/M184I and K101E/M184V were constructed using the previously generated K101E mutant and the appropriate oligonucleotides to add the second mutation, M184I and M184V, respectively. The double mutants E138K/M184I and E138K/M184V were constructed using the previously generated E138K mutant and the appropriate oligonucleotides for the second mutation, M184I and M184V, respectively. The triple mutant V106A/F227L/L234I was made using the previously generated V106A/F227L double mutant and the appropriate oligonucleotides for the third mutation, L234I. The triple mutant V106A/G190A/F227L was constructed in a series of steps using the previously generated V106A mutant and the appropriate oligonucleotides for the second mutation, G190A, to generate the double mutant V106A/G190A, and then the triple mutant was made using double mutant V106A/G190A and oligonucleotides for the third mutation, F227L. The DNA sequence of each construct was verified by DNA sequence determination. The sequences encoding the mutant RTs were then subcloned into pNLNgoMIVR-ΔEnv.LUC (between the KpnI and SalI sites) to produce the mutant HIV-1 constructs. These DNA sequences were also checked independently by DNA sequence determination.
(§3) 10.1186/s12977-016-0244-2 The IC50 values (nM) of RPV and the RPV analogs were determined against the NNRTI resistant mutants were measured by using a single round infection assay, n = 4. The concentrations (nM) are measured by reductions in luciferase reporter activity followed by the standard deviations. […]

[1] = test system: HIV-1 RT mutant K103N/P225H; test: single round infection assay, K103N/P225H; format: cell-based; details: Human immunodeficiency virus 1
Procedure: as §1, §2, §3

[2] = test system: HIV-1 RT mutant V106A/F227L/L234I; test: single round infection assay, V106A/F227L/L234I; format: cell-based; details: for IC50: ± SD, n=4
Procedure: as §1, §2, §3

HIV-1 RT mutant E138K = test: single round infection assay, E138K; format: cell-based; details: E138K vs WT
Procedure: as §1, §2, §3

WT HIV-1 [3] = test: single round infection luciferase assay, WT HIV-1; format: cell-based; details: Human immunodeficiency virus 1
Procedure: as §1, §2, §3

HIV-1 RT mutant L100I = test system: HIV-1 RT mutant L100I; design: method as in PMID 23217210; details: previous study; cited from earlier work
[4] = test system: HIV-1 RT mutant V106A/G190A/F227L; test: single round infection assay, V106A/G190A/F227L; format: cell-based
Procedure: as §1, §2, §3

HIV-1 RT mutant Y181I = test: single round infection assay, Y181I; format: cell-based
Procedure: as §1, §2, §3

HIV-1 RT mutant K101P = test: single round infection assay, K101P; format: cell-based
Procedure: as §1, §2, §3

WT HIV-1 [5] = details: previous study; cited from earlier work
[6] = test system: HIV-1 RT mutant V106A/F227L; test: single round infection assay, V106A/F227L; format: cell-based; details: V106A/F227L vs WT
Procedure: as §1, §2, §3

HIV-1 RT mutant M230L = test: single round infection assay, M230L; format: cell-based; details: M230L vs WT
Procedure: as §1, §2, §3

HIV-1 RT mutant Y181C = test system: HIV-1 RT mutant Y181C; design: method as in PMID 23217210; details: previous study; cited from earlier work
HIV-1 RT mutant H221Y = test system: HIV-1 RT mutant H221Y; design: method as in PMID 23217210; details: previous study; cited from earlier work
HIV-1 RT mutant D67E = test: single round infection assay, D67E; format: cell-based; details: D67E vs WT
Procedure: as §1, §2, §3

HIV-1 RT mutant K103N = test system: HIV-1 RT mutant K103N; design: method as in PMID 23217210; details: previous study; cited from earlier work
[7] = test system: HIV-1 RT mutant K103N/Y181C; design: method as in PMID 23217210; details: previous study; cited from earlier work
HIV-1 RT mutant G190S = test: single round infection assay, G190S; format: cell-based; details: Human immunodeficiency virus 1
Procedure: as §1, §2, §3

[8] = test system: HIV-1 RT mutant K101P/V179I; test: single round infection assay, K101P/V179I; format: cell-based
Procedure: as §1, §2, §3

HIV-1 RT mutant P236L = test: single round infection assay, P236L; format: cell-based
Procedure: as §1, §2, §3

[9] = test system: HIV-1 RT mutant E138K/M184I; test: single round infection assay, E138K/M184I; format: cell-based; details: E138K/M184I vs WT
Procedure: as §1, §2, §3

Cc1cc(/C=C/C#N)cc(C)c1Nc1nc(Nc2ccc(C#N)cc2)nc2[nH]cnc12 [compound 11]
IC50 (HIV-1 RT mutant G190A): 0.45 ± 0.01 nM | IC50 [1]: 0.22 ± 0.06 nM | IC50 ([2]; Human immunodeficiency virus 1, V106A/F227L/L234I (selected by DOR)): < 5 nM | IC50 ([2]; V106A/F227L/L234I (selected by DOR)): 3.4 ± 1.1 nM | fold-change of IC50 of the mutant relative to WT ([2]; V106A/F227L/L234I vs WT): 6 | fold-change of IC50 of the mutant relative to WT (HIV-1 RT mutant E138K): < 2 | IC50 (WT HIV-1 [3]): 0.56 ± 0.08 nM | IC50 (HIV-1 RT mutant L100I): < 7 nM | IC50 ([4]; Human immunodeficiency virus 1): 0.98 ± 0.17 nM | fold-change of IC50 of the mutant relative to WT ([4]; V106A/G190A/F227L vs WT): < 2 | IC50 (HIV-1 RT mutant Y181I; Human immunodeficiency virus 1): 2.4 nM | fold-change of IC50 of the mutant relative to WT (HIV-1 RT mutant Y181I; Y181I vs WT): 4 | IC50 (HIV-1 RT mutant K101P; Human immunodeficiency virus 1): 2.4 nM | fold-change of IC50 of the mutant relative to WT (HIV-1 RT mutant K101P; K101P vs WT): 4 | IC50 (WT HIV-1 [5]): < 7 nM | fold-change of IC50 of the mutant relative to WT [6]: < 2 | fold-change of IC50 of the mutant relative to WT (HIV-1 RT mutant M230L): 3 | IC50 (HIV-1 RT mutant Y181C): < 7 nM | IC50 (HIV-1 RT mutant H221Y): < 7 nM | fold-change of IC50 of the mutant relative to WT (HIV-1 RT mutant D67E): < 2 | IC50 (HIV-1 RT mutant K103N): < 7 nM | IC50 [7]: < 5 nM | IC50 (HIV-1 RT mutant G190S): 0.2 ± 0.07 nM | IC50 ([8]; Human immunodeficiency virus 1): 2.5 nM | fold-change of IC50 of the mutant relative to WT ([8]; K101P/V179I vs WT): 4 | IC50 (HIV-1 RT mutant P236L; Human immunodeficiency virus 1): 0.87 ± 0.2 nM | fold-change of IC50 of the mutant relative to WT (HIV-1 RT mutant P236L; P236L vs WT): < 2 | fold-change of IC50 of the mutant relative to WT [9]: < 2
